Values after ≈ are worked out from the molar mass of the structure shown.
Molecular target: T1, Brd4 bromodomain 1 (Homo sapiens, UniProt O60885)
T1 construct: Illustrative results with the first bromodomain of Brd4; made in house; host or cells: E. coli BL21(DE3)
Assay: Inhibition of tetra-acetylated histone H4 binding to BET bromodomain (TR-FRET)
Details: His-tagged first bromodomain of Brd4 (200 nM), biotinylated tetra-acetylated histone H4 peptide, 2 hours at room temperature
Method: Proteins were cloned and overexpressed with a N-terminal 6×His tag, then purified by nickel affinity followed by size exclusion chromatography. Briefly, E. coli BL21(DE3) cells were transformed with a recombinant expression vector encoding N-terminally Nickel affinity tagged bromodomains from Brd2, Brd3, Brd4. Cell cultures were incubated at 37° C. with shaking to the appropriate density and induced overnight with IPTG. The supernatant of lysed cells was loaded onto Ni-IDA column for purification. Eluted protein was pooled, concentrated and further purified by size exclusion chromatography. Fractions representing monomeric protein were pooled, concentrated, aliquoted, and frozen at −80° C. for use in subsequent experiments.
Binding of tetra-acetylated histone H4 and BET bromodomains was confirmed by a Time Resolved Fluorescence Resonance Energy Transfer (TR-FRET) method. N-terminally His-tagged bromodomains (200 nM) and biotinylated tetra-acetylated histone H4 peptide (25-50 nM, Millipore) were incubated in the presence of Europium Cryptate-labeled streptavidin (Cisbio Cat. #610SAKLB) and XL665-labeled monoclonal anti-His antibody (Cisbio Cat. #61HISXLB) in a white 96 well microtiter plate (Greiner). For inhibition assays, serially diluted test compound was added to these reactions in a 0.2% final concentration of DMSO. Final buffer concentrations were 30 mM HEPES pH 7.4, 30 mM NaCl, 0.3 mM CHAPS, 20 mM phosphate pH 7.0, 320 mM KF, 0.08% BSA). After 2 hours incubation at room temperature, the fluorescence by FRET was measured at 665 and 620 nm by a SynergyH4 plate reader (Biotek). Illustrative results with the first bromodomain of Brd4. The binding inhibitory activity was shown by a decrease in 665 nm fluorescence relative to 620 nm. IC50 values were determined from a dose response curve.

FRET activity (<50 uM) | Structure (SMILES)
Active | O=c1cc(-c2ccc(O)cc2)oc2ncccc12 [Example 1, 2-(4-Hydroxy-phenyl)-pyrano[2,3-b]pyridin-4-one]
Active | O=c1cc(-c2ccc(O)c(Br)c2)oc2ncccc12 [Example 8, 2-(3-Bromo-4-hydroxyphenyl)-4H-pyrano[2,3-b]pyridin-4-one]
Active | O=c1cc(-c2ccc(O)cc2)oc2cccnc12 [Example 2, 2-(4-Hydroxy-phenyl)-pyrano[3,2-b]pyridin-4-one]

System: Caco-2 cells
Assay: Caco-2 permeability (in vitro Caco-2 intestinal transport model)
Assay type: in vitro ADME
Details: not given
From the text: The Caco-2 cell drug transport model is widely used for screening compounds in drug discovery to assess intestinal transport and predict absorption rates.

% Transported Paap [×10⁻⁶ cm/s] | Apparent permeability (Papp) [×10⁻⁶ cm/s] | Structure (SMILES)
10.1 | – | CCCO [Propanol]
– | 3.34 | Oc1ccc(C=Cc2cc(O)cc(O)c2)cc1 [Resveratrol]
– | 1.5 | O=c1cc(-c2ccc(O)cc2)oc2cc(O)cc(O)c12 [5,7-dihydroxy-2-(4-hydroxyphenyl)-4H-chomen-4-one]

System: not given
Assay: not given
Details: not given

melting point [°C] | Structure (SMILES)
267 to 268 | O=c1cc(-c2ccc(O)c(F)c2)oc2ncccc12 [Example 4, 2-(3-Fluoro-4-hydroxyphenyl)pyrano[2,3-b]pyridine-4-one]
259 to 262 | O=c1cc(-c2ccc(O)c(Cl)c2)oc2ncccc12 [Example 7, 2-(3-Chloro-4-hydroxyphenyl)-4H-pyrano[2,3-b]pyridine-4-one]
267 to 272 | O=c1cc(-c2ccc(O)c(Br)c2)oc2ncccc12 [Example 8, 2-(3-Bromo-4-hydroxyphenyl)-4H-pyrano[2,3-b]pyridin-4-one]
157 to 159 | O=c1cc(-c2ccc(OCCO)cc2)oc2ncccc12 [Example 11, 2-(4-(2-Hydroxyethoxy)phenyl)-4H-pyrano[2,3-b]pyridine-4-one]
300 to 302 | Cc1cc(-c2cc(=O)c3cccnc3o2)ccc1O [Example 5, 2-(4-Hydroxy-3-methylphenyl)-4H-pyrano[2,3-b]pyridine-4-one]
306 to 308 | O=c1cc(-c2ccc(O)cc2)oc2ccncc12 [Example 6, 2-(4-Hydroxyphenyl)-4H-pyrano[3,2-c]pyridin-4-one]
253 to 255 | COc1cc(-c2cc(=O)c3cccnc3o2)ccc1O [Example 9, 2-(4-Hydroxy-3-methoxyphenyl)-4H-pyrano[2,3-b]pyridine-4-one]
269 to 270 | COc1ccc(-c2cc(=O)c3cccnc3o2)cc1 [Example 10, 2-(4-Methoxyphenyl)-4H-pyrano[2,3-b]pyridine-4-one]
226 to 227 | O=c1cc(-c2ccc(O)c(CO)c2)oc2ncccc12 [Example 13, 2-(4-Hydroxy-3-(hydroxymethyl)phenyl)-4H-pyrano[2,3′-b]pyridine-4-one]
167 to 169 | CC(=O)Oc1ccc(-c2cc(=O)c3cccnc3o2)cc1 [Example 12, 4-(4-Oxo-4H-pyrano[2,3-b]pyridine-2-yl)phenyl acetate]
294 to 296 | O=c1cc(-c2ccc(O)cc2)oc2cnccc12 [Example 3, 2-(4-Hydroxyphenyl)-pyrano[2,3-c]pyridin-4-one]

System: not given
Assay: not given
Details: value from S. P. Ng et al. (2005), footnote *; cited from earlier work

Structure (SMILES) | Solubility (PBS)
O=c1cc(-c2ccc(O)cc2)oc2cc(O)cc(O)c12 [5,7-dihydroxy-2-(4-hydroxyphenyl)-4H-chomen-4-one] | 3.37* μM

Same assay, conditions: value from S. P. Ng et al. (2005), footnote *; listed as apigenin; cited from earlier work

Structure (SMILES) | Solubility (PBS) [µM]
O=c1cc(-c2ccc(O)cc2)oc2cc(O)cc(O)c12 [5,7-dihydroxy-2-(4-hydroxyphenyl)-4H-chomen-4-one] | 3.27 (≈ 0.884 µg/mL)

From US20130281396A1, “TREATMENT OF DISEASES BY EPIGENETIC REGULATION” (RVX Therapeutics Inc., priority 2012, published 2013)
